# Assay results as given in patent US20070128193A1, “GLP-1 agonists, compositions, methods and uses” (priority 2004, published 2007).
# Where no end group is shown, it is not given here.
# Experiments:
# RINm cells = test: Insulin secretion in RINm cells; assay type: cell-based; settings: peptides 0-5 nM; mimetibodies 5 or 50 nM
# Protocol: GLP-1 mimetibody causes insulin secretion in RINm cells. To test the effect of GLP-1 mimetibody in insulin secretion, RINm cells were treated with increasing concentrations of GLP-1 (7-36) peptide (0-5 nM) (FIG. 6A), exendin-4 peptide (0-5 nM) (FIG. 6A), or various GLP-1 mimetibodies (5 or 50 nM) and the amount of insulin secreted was measured via ELISA. All GLP-1 mimetibodys tested had activities in stimulating insulin secretion in RINm cells.
# [1] = Human serum stability assay; assay type: in vitro ADME; settings: 30 nM, 37° C.
# Protocol: Human Serum stability assay. The stability of the GLP-1 mimetibody in serum was also measured to ensure that other serum proteases were not able to cleave and inactivate the GLP-1 mimetibody. Briefly, GLP1 peptide or the GLP1 mimetibody (30 nM) was incubated in human serum at 37° C. After various times, samples were evaluated to determine the amount of intact peptide or mimetibody. The reactions were quenched with a DPP-IV inhibitor (100 μM, Linco), and the samples were analyzed using the GLP-1 Active ELISA from Linco.
# DPP-IV = molecular target: T1, DPP-IV (Homo sapiens, UniProt P27487); test: DPP-IV cleavage assay; assay type: in vitro ADME; settings: 1.2 nM, DPP-IV 1 μg/mL, room temperature, 0-40 minutes
# T1 construct: purchased R&D Systems
# Protocol: DPP-IV cleavage assay. Since GLP-1 is rapidly inactivated by DPP-IV, an in vitro assay was established to quantitate intact (i.e. uncleaved) GLP-1 mimetibody. Briefly, GLP-1 mimetibody or peptide (1.2 nM) was incubated at room temperature with DPP-IV (1 μg/mL, R&D Systems). After various times (0, 5, 10, 15, 20, 30, 40 minutes), a DPP-IV inhibitor (100 μM, Linco) was added to quench the reaction. The amount of intact GLP-1 mimetibody or peptide was measured using the GLP-1 Active ELISA (Linco) and the GLP-1 mimetibody or peptides for the respective standard curves.
# db/db mice = test: Fasting blood glucose in db/db mice; assay type: in vivo
# Protocol: GLP-1 mimetibody lowers glucose level in db/db mice. […] Blood glucose was monitored 0.5, 1, 2, 3, and 4 hours post-dosing. […] In addition, consistent with the mechanism of action for GLP-1, the maximum glucose lowering effect achieved at 0.19 nmol was not enhanced by a higher dose of the GLP-1 mimetibody (1.9 nmol). The maximum glucose lowering effect maintained blood glucose values within the normal range.
# GLP-1R = molecular target: T2, GLP-1R (Homo sapiens, UniProt P43220); test: FACS binding assay, HEK293 cells over-expressing GLP-1R; settings: 20 nM, 2 hours at 4° C.
# T2 construct: expressed in transfected cells; host or cells: HEK293
# Protocol: FACS Binding Assay. The activity of GLP-1 mimetibody was tested in an in vitro FACS binding assay. To determine whether the GLP-1 mimetibody binds GLP-1R, HEK293 cells (1×10^6 cells) over-expressing GLP-1R were incubated with GLP-1 mimetibody (20 nM) for 2 hours at 4° C. The cells were washed, and a fluorescently labeled secondary detection antibody (1 μg/mL goat anti-human IgG, Fc gamma specific) was added for 30 minutes at 4° C. The fluorescence intensity of the cells was monitored via flow cytometry.
# control HEK293 cells = test: FACS binding assay, control HEK293 cells; settings: 20 nM, 2 hours at 4° C.
# [2] = administered subcutaneously; cited from earlier work
# T2 sequence (P43220 24-463, species assumed): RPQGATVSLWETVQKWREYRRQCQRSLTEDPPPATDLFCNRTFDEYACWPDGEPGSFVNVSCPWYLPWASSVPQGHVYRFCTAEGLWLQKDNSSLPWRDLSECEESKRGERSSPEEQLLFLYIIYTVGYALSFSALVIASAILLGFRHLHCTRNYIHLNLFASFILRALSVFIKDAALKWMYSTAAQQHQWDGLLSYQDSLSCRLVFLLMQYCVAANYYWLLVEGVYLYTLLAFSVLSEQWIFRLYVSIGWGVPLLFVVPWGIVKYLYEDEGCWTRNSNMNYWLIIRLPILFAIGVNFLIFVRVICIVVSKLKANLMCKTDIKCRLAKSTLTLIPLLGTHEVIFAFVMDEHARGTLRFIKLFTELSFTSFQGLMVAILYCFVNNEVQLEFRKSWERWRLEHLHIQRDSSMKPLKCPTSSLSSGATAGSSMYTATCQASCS
# T1 sequence (P27487 whole entry, species assumed): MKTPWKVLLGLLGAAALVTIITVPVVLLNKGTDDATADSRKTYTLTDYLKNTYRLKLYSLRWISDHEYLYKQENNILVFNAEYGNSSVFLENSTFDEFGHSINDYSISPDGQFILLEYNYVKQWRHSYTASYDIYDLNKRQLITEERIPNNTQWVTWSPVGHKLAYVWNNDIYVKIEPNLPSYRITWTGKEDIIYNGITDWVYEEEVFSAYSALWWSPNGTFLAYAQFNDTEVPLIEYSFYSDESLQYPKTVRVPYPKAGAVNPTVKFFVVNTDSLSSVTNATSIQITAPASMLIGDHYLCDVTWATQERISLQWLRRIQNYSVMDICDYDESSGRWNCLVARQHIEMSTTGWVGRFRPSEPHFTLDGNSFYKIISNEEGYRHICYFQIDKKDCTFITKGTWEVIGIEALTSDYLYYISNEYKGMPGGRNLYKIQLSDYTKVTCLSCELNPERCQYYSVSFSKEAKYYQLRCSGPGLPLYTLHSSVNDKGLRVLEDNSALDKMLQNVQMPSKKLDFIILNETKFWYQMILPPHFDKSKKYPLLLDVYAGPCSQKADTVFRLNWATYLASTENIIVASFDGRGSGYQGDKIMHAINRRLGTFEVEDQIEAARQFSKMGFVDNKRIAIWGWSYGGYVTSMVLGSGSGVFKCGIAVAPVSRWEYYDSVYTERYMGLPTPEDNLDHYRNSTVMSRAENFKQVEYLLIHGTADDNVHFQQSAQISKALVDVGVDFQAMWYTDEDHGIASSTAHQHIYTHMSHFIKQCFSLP
substance,measurement,setting,value
"exendin-4 peptide: exendin-4 peptide, positive control",stimulation of insulin secretion in RINm cells,RINm cells,stimulates insulin release in RINm cells
"GLP-1 mimetibody: GLP-1 peptide (7-36), Gly-Ser linker, J region, IgG1 hinge, CH2 and CH3 construct (SEQ ID NO:2)",remained intact in human serum after 24 hours,[1],> 90%
same,resistance to cleavage by DPP-IV relative to the GLP-1 peptide,DPP-IV,significantly more resistant to cleavage by DPP-IV
same,lowering of fasting blood glucose compared to control animals,db/db mice; doses ranging from 0.019 to 1.9 nmol,effective in lowering the fasting blood glucose
same,dose at which maximum glucose lowering effect was achieved,db/db mice; not enhanced by 1.9 nmol,0.19 nmol
same,binding to HEK293 cells over-expressing GLP-1R (FACS),GLP-1R,binds to HEK293 cells over-expressing GLP-1R
same,binding to control HEK293 cells (FACS),control HEK293 cells,not to control HEK293 cells
GLP-1 peptide: GLP-1 peptide used as comparator [reference compound],blood glucose over 4 hours post-dosing,"db/db mice; db/db mice fasted two hours, intravenous, mimetibody dose 100-fold lower than peptide dose","lowered blood glucose at 30 minutes, but by 60 minutes, the blood glucose began to increase again"
GLP-1 (7-36) amide: GLP-1 (7-36) amide,time action,[2],about 50 minutes
"GLP-1 (7-36) peptide: wild-type GLP-1 (7-36) peptide (HAEGTFTSDVSSYLEGQAAKEFIAWLVKGR; ends and bridges not checked; UniProt P01275 98-127, looked up, fragment)",stimulation of insulin secretion in RINm cells,RINm cells,stimulates insulin release in RINm cells
